Active and inactive are the calls of the source. The calls are words filed in the database; no cut-off is given here.
Legend:
[1] = biological target: T1, Neuronal acetylcholine receptor; alpha4/beta2 (Homo sapiens, UniProt P17787+P43681); assay: Partial agonist activity at alpha4beta2 nAChR in human SH-EP1 cells assessed as calcium flux by calcium4-based FLIPR assay relative to nicotine; type: functional, cell-based
[2] = biological target: T2, Neuronal acetylcholine receptor; alpha3/beta4 (Homo sapiens, UniProt P30926+P32297); assay: Agonist activity at human alpha3beta4 nAChR expressed in CHO cells assessed as calcium flux by calcium4-based FLIPR assay; type: functional, cell-based
[3] = biological target: Neuronal acetylcholine receptor subunit alpha-7 (Homo sapiens, UniProt P36544); assay: Displacement of [3H]epibatidine from human alpha7 nAChR expressed in CHO cells after 2 hrs by liquid scintillation counting; type: cell-based
[4] = biological target: T1, Neuronal acetylcholine receptor; alpha4/beta2; assay: Displacement of [3H]nicotine from alpha4beta2 nAChR in human SH-EP1 cells after 2 hrs by liquid scintillation assay; type: cell-based
[5] = biological target: T2, Neuronal acetylcholine receptor; alpha3/beta4; assay: Agonist activity at human alpha3beta4 nAChR expressed in CHO cells assessed as calcium flux by calcium4-based FLIPR assay relative to nicotine; type: functional, cell-based
[6] = biological target: T1, Neuronal acetylcholine receptor; alpha4/beta2; assay: Partial agonist activity at alpha4beta2 nAChR in human SH-EP1 cells assessed as calcium flux by calcium4-based FLIPR assay; type: functional, cell-based
[7] = biological target: T2, Neuronal acetylcholine receptor; alpha3/beta4; assay: Displacement of [3H]epibatidine from human alpha3beta4 nAChR expressed in CHO cells after 2 hrs by liquid scintillation counting; type: cell-based
[8] = biological target: Neuronal acetylcholine receptor; alpha4/beta2 (Rattus norvegicus, UniProt P09483+P12390); assay: Displacement of [3H]epibatidine from alpha4beta2 nAChR in Sprague-Dawley rat cortex after 2 hrs by liquid scintillation counting
Rattus norvegicus [9] = assay: Procognitive activity in Sprague-Dawley rat assessed as increase in working memory at 1 mg/kg, po administered QD for 3 days 30 mins prior to testing by novel object recognition test (reference value: 51%); type: functional
Cytochrome P450 2D6 = Cytochrome P450 2D6 (Homo sapiens, UniProt P10635); assay: Inhibition of CYP2D6; type: ADME
hERG (KCNH2) = hERG (KCNH2) (Homo sapiens, UniProt Q12809); assay: Inhibition of human ERG at 10 uM
[10] = biological target: Acetylcholine receptor; alpha1/beta1/delta/gamma (Homo sapiens) (UniProt P02708+P07510+P11230+Q07001); assay: Agonist activity at alpha1beta1gammadelta nAChR; type: functional
[11] = biological target: T3, 5-hydroxytryptamine receptor 3A (Homo sapiens) (UniProt P46098); assay: Inhibition of 5HT3 receptor at 10 uM
T3 sequence (whole entry): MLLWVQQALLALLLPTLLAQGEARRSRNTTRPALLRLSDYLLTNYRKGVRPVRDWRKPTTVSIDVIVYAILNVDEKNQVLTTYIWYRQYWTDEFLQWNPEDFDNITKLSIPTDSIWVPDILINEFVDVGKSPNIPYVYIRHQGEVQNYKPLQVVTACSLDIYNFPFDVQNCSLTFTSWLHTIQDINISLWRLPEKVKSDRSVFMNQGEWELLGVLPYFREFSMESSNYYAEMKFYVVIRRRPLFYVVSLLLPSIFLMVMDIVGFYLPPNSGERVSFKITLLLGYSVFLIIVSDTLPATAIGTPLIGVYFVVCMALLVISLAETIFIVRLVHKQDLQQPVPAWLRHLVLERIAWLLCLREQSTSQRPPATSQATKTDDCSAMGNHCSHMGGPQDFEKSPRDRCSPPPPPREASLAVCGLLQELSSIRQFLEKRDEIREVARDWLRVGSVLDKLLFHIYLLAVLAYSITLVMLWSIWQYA

[12] = Agonist activity at ganglion nAChR; type: functional
Rattus norvegicus [13] = assay: Procognitive activity in Sprague-Dawley rat assessed as increase in working memory at 0.3 to 3 mg/kg, po administered QD for 3 days 30 mins prior to testing by novel object recognition test; type: functional, organism-based
[14] = Inhibition of adrenergic alpha2 receptor at 10 uM
[15] = biological target: T1, Neuronal acetylcholine receptor; alpha4/beta2; assay: Binding affinity to alpha4beta2 nAChR; type: protein-complex assay
[16] = biological target: T4, 5-hydroxytryptamine receptor 3A (Homo sapiens, UniProt P46098); assay: Inhibition of human 5HT3 receptor
T4 sequence (P46098 whole entry): T3 sequence (whole entry)

[17] = biological target: T1, Neuronal acetylcholine receptor; alpha4/beta2; assay: Agonist activity at alpha4beta2 nAChR in human SH-EP1 cells assessed as calcium flux by calcium4-based FLIPR assay; type: functional, cell-based
[18] = biological target: T3, 5-hydroxytryptamine receptor 3A (Homo sapiens); assay: Inhibition of human 5HT3 receptor at 10 uM
[19] = biological target: T5, 5-hydroxytryptamine receptor 3A (Mus musculus) (UniProt P23979); assay: Inhibition of mouse 5HT3 receptor at 10 uM
T5 sequence (whole entry): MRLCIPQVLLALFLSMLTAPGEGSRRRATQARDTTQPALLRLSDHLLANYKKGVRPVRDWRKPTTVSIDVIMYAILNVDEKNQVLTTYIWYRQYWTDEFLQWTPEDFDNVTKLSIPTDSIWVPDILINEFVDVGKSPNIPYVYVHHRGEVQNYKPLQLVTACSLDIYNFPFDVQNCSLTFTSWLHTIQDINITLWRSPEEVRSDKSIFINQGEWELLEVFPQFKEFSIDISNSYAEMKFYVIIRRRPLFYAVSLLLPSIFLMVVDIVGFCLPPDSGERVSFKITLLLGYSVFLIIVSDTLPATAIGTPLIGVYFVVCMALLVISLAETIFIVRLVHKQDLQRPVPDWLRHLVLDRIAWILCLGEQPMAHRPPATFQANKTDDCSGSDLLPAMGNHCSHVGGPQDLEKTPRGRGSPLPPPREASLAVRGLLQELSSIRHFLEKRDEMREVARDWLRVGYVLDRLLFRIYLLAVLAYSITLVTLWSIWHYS

Rattus norvegicus [20] = assay: Procognitive activity in Sprague-Dawley rat assessed as increase in working memory at 0.1 to 0.3 mg/kg, po administered QD for 3 days 30 mins prior to testing by novel object recognition test; type: functional, organism-based
[21] = biological target: T1, Neuronal acetylcholine receptor; alpha4/beta2; assay: Agonist activity at alpha4beta2 nAChR in human SH-EP1 cells assessed as calcium flux by calcium4-based FLIPR assay relative to nicotine; type: functional, cell-based
Rattus norvegicus [22] = assay: Procognitive activity in Sprague-Dawley rat assessed as recognition index at 0.1 mg/kg, po administered QD for 3 days 30 mins prior to testing by novel object recognition test (reference value: 50%); type: functional
[23] = biological target: T1, Neuronal acetylcholine receptor; alpha4/beta2; assay: Binding affinity to human alpha4beta2 nAChR expressed in xenopus oocyte

Neuronal acetylcholine receptor; alpha4/beta2 (Rattus norvegicus, UniProt P09483+P12390), sequence (P09483 whole entry): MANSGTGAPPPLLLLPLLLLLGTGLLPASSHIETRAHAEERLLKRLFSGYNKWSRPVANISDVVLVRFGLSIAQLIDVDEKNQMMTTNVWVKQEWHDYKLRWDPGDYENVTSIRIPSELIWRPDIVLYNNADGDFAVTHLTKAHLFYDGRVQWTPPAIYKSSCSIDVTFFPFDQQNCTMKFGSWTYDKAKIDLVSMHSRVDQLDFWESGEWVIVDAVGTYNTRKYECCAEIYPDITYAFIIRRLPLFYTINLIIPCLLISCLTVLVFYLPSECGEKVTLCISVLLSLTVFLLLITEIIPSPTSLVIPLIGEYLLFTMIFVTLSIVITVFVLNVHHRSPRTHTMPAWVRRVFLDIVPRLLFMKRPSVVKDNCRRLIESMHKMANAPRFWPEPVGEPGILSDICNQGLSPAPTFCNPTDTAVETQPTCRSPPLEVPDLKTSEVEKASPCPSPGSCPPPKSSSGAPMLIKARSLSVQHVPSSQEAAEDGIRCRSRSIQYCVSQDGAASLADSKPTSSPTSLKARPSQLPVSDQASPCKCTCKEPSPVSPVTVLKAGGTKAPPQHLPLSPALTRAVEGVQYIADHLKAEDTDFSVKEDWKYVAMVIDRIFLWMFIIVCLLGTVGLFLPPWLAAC
Neuronal acetylcholine receptor; alpha4/beta2 (Rattus norvegicus, UniProt P09483+P12390), sequence (P12390 whole entry): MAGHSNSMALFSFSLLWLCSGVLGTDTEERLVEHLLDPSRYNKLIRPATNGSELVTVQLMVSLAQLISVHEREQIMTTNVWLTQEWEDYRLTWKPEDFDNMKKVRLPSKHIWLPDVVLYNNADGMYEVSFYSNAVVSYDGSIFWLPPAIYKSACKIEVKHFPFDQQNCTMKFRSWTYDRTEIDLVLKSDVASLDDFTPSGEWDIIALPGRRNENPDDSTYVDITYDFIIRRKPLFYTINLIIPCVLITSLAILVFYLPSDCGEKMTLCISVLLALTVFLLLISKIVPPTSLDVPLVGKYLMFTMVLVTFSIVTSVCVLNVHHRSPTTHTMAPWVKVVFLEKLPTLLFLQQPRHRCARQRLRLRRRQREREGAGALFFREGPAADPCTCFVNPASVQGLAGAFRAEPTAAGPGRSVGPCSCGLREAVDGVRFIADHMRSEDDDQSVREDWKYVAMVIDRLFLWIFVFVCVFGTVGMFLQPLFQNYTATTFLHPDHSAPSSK
T1 sequence (P17787 whole entry): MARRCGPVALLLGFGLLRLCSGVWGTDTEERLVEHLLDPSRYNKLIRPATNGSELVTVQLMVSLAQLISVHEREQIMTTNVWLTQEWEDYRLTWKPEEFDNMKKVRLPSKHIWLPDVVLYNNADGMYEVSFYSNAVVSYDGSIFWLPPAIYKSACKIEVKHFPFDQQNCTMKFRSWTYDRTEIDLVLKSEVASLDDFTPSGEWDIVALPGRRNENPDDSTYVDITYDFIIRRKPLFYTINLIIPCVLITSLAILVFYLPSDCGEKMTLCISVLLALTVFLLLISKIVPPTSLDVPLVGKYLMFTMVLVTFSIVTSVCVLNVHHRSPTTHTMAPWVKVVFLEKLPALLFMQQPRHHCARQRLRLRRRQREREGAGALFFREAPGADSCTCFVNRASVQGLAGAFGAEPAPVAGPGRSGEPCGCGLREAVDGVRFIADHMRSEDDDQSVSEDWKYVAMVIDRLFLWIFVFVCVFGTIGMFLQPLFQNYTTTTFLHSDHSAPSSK
T1 sequence (P43681 whole entry): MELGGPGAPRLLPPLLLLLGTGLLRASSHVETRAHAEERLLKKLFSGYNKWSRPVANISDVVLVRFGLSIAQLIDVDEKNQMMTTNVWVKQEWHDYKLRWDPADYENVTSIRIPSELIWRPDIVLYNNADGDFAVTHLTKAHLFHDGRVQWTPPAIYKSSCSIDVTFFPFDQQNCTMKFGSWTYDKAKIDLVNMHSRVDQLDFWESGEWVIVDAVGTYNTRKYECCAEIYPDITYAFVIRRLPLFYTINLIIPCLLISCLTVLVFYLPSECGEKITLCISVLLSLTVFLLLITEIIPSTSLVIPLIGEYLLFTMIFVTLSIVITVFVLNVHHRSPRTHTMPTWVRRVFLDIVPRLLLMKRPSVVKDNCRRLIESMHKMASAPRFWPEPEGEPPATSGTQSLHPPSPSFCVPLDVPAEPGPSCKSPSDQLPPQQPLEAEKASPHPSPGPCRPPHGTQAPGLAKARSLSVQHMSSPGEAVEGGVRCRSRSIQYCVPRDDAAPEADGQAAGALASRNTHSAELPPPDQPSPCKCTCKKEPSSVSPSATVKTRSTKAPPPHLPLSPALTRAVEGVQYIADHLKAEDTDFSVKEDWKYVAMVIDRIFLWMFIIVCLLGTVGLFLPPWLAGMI
Neuronal acetylcholine receptor subunit alpha-7, sequence (P36544 whole entry): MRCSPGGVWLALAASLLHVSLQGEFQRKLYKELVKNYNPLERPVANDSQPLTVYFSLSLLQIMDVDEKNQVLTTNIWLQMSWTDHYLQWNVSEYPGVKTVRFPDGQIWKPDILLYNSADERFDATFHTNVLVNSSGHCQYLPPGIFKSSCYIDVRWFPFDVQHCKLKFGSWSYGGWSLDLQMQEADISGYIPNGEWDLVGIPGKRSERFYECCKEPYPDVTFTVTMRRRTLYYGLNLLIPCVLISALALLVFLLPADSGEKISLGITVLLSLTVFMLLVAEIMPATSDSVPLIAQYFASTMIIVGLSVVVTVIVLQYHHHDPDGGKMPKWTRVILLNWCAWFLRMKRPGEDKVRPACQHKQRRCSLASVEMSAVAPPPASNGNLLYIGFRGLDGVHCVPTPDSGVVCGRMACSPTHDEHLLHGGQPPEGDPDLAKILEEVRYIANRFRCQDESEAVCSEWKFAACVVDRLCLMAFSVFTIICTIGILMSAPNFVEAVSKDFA
T2 sequence (P30926 whole entry): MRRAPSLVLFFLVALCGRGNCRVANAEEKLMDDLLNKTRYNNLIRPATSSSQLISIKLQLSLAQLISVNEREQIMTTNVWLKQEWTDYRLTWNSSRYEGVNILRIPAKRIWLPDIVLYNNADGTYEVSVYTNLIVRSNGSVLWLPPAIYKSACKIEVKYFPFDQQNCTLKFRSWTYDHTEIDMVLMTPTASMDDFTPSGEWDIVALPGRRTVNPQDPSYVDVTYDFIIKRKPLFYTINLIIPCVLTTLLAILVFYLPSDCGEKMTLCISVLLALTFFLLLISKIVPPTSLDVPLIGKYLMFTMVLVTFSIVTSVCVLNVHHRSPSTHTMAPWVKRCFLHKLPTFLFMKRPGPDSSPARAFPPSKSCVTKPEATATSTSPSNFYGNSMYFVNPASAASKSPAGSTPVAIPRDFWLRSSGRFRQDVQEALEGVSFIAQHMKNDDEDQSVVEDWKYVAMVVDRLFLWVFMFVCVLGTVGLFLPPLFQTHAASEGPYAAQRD
T2 sequence (P32297 whole entry): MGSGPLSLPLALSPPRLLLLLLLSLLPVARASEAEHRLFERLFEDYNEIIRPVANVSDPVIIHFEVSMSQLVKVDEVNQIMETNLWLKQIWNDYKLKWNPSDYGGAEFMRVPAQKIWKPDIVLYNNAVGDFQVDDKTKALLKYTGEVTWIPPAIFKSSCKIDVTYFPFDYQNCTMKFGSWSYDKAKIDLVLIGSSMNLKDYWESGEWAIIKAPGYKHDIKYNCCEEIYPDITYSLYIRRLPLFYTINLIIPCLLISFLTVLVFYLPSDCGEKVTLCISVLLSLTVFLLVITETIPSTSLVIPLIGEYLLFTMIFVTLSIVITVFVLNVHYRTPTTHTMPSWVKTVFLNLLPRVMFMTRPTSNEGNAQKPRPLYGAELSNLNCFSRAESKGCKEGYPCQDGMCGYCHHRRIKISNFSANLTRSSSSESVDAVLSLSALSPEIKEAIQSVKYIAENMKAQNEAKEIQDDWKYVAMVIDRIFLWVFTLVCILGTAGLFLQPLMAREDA
Cytochrome P450 2D6, sequence (P10635 whole entry): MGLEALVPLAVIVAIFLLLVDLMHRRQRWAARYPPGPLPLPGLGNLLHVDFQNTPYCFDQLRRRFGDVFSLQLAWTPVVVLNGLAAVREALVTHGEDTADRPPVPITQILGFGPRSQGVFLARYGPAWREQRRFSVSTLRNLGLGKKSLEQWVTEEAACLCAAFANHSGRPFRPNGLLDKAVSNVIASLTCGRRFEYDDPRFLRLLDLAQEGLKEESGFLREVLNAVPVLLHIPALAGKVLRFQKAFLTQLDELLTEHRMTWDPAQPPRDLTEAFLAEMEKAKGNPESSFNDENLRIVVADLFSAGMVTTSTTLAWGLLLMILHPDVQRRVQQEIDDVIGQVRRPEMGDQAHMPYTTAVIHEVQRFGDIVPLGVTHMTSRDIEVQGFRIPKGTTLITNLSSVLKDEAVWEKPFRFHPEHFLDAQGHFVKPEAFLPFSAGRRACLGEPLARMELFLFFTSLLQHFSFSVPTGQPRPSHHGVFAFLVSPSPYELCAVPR

| SMILES | Emax [1] [%] | EC50 [2] [µM] | Ki [3] [µM] | Ki [4] [µM] | Emax [5] [%] | EC50 [6] [µM] | Ki [7] [µM] | Ki [8] [µM] | Ki [15] [µM] | other results |
| --- | --- | --- | --- | --- | --- | --- | --- | --- | --- | --- |
| N#Cc1coc(C(=O)N2CC3CNCC(C3)C2)c1 | 20 | 35 | > 10 | 0.033 | 19 | 110 | > 10 |  |  |  |
| O=C(c1ccc(Cl)o1)N1CC2CNCC(C2)C1 | 47 | 15 | > 10 | 0.005 | 61 | 1.4 | 6.4 | 0.007 |  | %max (Rattus norvegicus [9]): 75%; inhibition (INH) (Cytochrome P450 2D6): Not Active; inhibition at 10 µM (hERG (KCNH2)): < 5%; Activity [10]: inactive; inhibition [11]: 40%; Activity [12]: inactive; Activity (Rattus norvegicus [13]): Active; inhibition [14]: 35% |
| CCC(=O)C1=CCCN(C)C1 [ARECOLON] |  |  |  |  |  |  |  |  | 0.0058 |  |
| N#Cc1ccoc1C(=O)N1CC2CNCC(C2)C1 | 8 | 21 | > 10 | 0.039 | 16 | 26 | > 10 | 0.28 |  |  |
| O=C(c1cc(Br)co1)N1CC2CNCC(C2)C1 | 34 | 50 | > 10 | 0.003 | 13 | 18 | 9.3 | 0.057 |  |  |
| C1=C(c2cccnc2)C2CCC(CC1)N2 (stereo not given) |  |  |  |  |  |  |  |  | 0.00027 |  |
| O=C(c1occc1Br)N1CC2CNCC(C2)C1 | 8 | 24 | > 10 | 0.023 | 20 | 8.6 | 6.5 | 0.13 |  |  |
| O=C(c1ccc(Cl)o1)N1CC2CNCC2C1 (stereo not given) [AZD1446] |  | 70 | 6.7 | 0.03 | 10 |  | > 10 | 0.034 |  | Ki [16]: 0.7 µM; EC50 [17]: 4.9 µM; inhibition [18]: 87%; inhibition (INH) (Cytochrome P450 2D6): Not Active; inhibition at 10 µM (hERG (KCNH2)): < 5%; Activity [10]: inactive; inhibition [19]: 97%; Activity [12]: inactive; Activity (Rattus norvegicus [20]): Active; Emax [21]: 120%; %max (Rattus norvegicus [22]): 74% |
| CN[C@@H](C)C/C=C/c1cccnc1 |  |  |  |  |  |  |  |  | 0.024 |  |
| CC(=O)/C=C1\CN2CCC1CC2 |  |  |  |  |  |  |  |  |  | Ki [23]: 0.013 µM |
| c1cncc(N2CC3CNCC(C3)C2)c1 |  |  |  |  |  |  |  |  | 0.0002 |  |
| O=C(c1cc(Cl)co1)N1CC2CNCC(C2)C1 | 11 | 54 | > 10 | 0.005 | 27 | 100 | 6.6 | 0.04 |  |  |
| O=C(c1cc(F)co1)N1CC2CNCC(C2)C1 | 66 | 22 | > 10 | 0.022 | 93 | 0.8 | 3.2 |  |  |  |
| CN1CCC=C(c2ccc(Cl)nc2)C1 |  |  |  |  |  |  |  |  | 0.0022 |  |
